Measurements published in patent US12721838B2 (Henry Ford Health System, priority 2020, dated 2026).
Read-outs that look alike come from different tables or passages of the source.

Key:
[1] = cited from earlier work
luciferase = target: T1, luciferase (Renilla reniformis, UniProt P27652); assay: Counter-screen with control luciferase-transfected HFF cells; assay type: cell-based
T1 construct: expressed in transfected cells; host or cells: human foreskin fibroblasts (HFF)
T1 sequence (P27652 1-311): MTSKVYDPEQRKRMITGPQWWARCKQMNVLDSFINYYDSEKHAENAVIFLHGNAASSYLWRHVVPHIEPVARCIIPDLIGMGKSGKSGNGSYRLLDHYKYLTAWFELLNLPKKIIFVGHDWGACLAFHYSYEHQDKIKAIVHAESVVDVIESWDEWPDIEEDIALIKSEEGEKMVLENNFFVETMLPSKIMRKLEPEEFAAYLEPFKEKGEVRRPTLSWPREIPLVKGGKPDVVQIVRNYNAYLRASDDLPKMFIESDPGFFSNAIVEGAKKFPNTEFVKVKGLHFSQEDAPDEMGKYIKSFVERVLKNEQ
Experimental: Human foreskin fibroblast cells (HFF) cells were transfected with a Trib2-Luciferase (Luc-Trib2) fusion construct. Cells were plated in 96-well tissue culture plates and treated with compounds (10 μM) for 24 hours. Luciferase activity was measured using an EnduRen™ Live cell substrate kit (commercially available from PROMEGA CORP.®, Madison, WI). […] For further development, selected compounds were counter-screened with control luciferase-transfected HFF cells.
The main hurdle to develop agents to inhibit Trib2 is the lack of a quick and easy assay procedure to effectively screen large number of compounds. To overcome this problem, the present disclosure provides a design for a new assay system to measure the active state of Trib2 protein. The present disclosure describes a Trib2-luciferase gene construct by combining the full length human Trib2 gene with the luciferase gene from Renilla. Destabilization of the three-dimensional conformation of the resultant Trib2-luc fusion protein can deliver reportable outcome via alteration in the enzymatic activity of luciferase. A second screen was designed to eliminate compounds that affects the activity of only luciferase. […] Thus, the luciferase-based assay system (involving first screen and a counter-screen) of the present disclosure emerges as an effective way to identify Trib2-targeting drugs using simple gene transfected cell lines in culture.
Here, the screening strategy used to select compounds based on inhibition of luciferase activity in Trib2-Luc cells, but not in Luc cells. Compounds screened included a representative set of 104 FDA-approved compounds on Trib2-Luciferase fusion construct-transfected HFF cells are shown here. Cells were treated with compounds (10 μM) for 24 hours and measured luciferase activity using a kit from Promega Corp. (Madison, WI). For further development selected compounds are counter-screened with control luciferase-transfected HFF cells.

pure Trib2 protein = target: T2, pure Trib2 protein (Homo sapiens, UniProt Q92519); assay: Thermal shift assay by Differential Scanning Spectro-fluorometry; assay type: binding; details: decreased from 41° C. (DMSO only)
T2 sequence (Q92519 1-343): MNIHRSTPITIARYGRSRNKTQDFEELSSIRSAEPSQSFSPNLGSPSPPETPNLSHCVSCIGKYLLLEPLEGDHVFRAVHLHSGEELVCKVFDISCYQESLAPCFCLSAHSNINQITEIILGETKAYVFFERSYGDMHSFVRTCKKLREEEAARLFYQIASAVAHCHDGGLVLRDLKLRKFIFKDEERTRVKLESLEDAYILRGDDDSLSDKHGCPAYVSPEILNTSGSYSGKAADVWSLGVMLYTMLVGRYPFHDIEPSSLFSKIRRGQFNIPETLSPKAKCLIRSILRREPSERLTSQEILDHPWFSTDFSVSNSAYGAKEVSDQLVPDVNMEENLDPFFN
Text: FIG. 8 depicts a graph showing the results of a thermal shift assay of pure Trib2 protein by Differential Scanning Spectro-fluorometry.

p-glycoprotein (PGP) = p-glycoprotein (PGP) (Homo sapiens, UniProt P08183); details: cited from earlier work
normal, non-cancer cells = assay: Effects on normal, non-cancer cells; assay type: cell-based; details: same experimental conditions as ERPC cells
TRIB2 = target: T3, TRIB2 (Homo sapiens, UniProt Q92519); assay: Western blot of TRIB2 protein levels in cancer cells; assay type: cell-based; design: Whole cell lysate proteins were analyzed by Western blot; endogenous in cells; host or cells: LNCaP-ENR (enzalutamide-resistant LNCaP) cells; details: for TRIB2 protein levels: LNCaP-ENR cells, 24 hours
T3 sequence (Q92519 1-343): T2 sequence (Q92519 1-343)
Experimental: Enzalutamide-resistant prostate cancer (ERPC) cells (LNCaP-ENR cells) were plated and treated with 10 μM each of various compounds for 24 hours. Exemplary methods for developing and using LNCaP-ENR cells is disclosed in Monga, J., Subramani, D., Bharathan, A., and Ghosh, J. (2020) “Pharmacological and genetic targeting of 5-lipoxygenase interrupts c-Myc oncogenic signaling and kills enzalutamide-resistant prostate cancer cells via apoptosis.” Scientific Reports 10: 6649, the disclosure of which is incorporated herein by reference in its entirety. Whole cell lysate proteins were analyzed by Western blot. TRIB2 antibody was used to detect protein levels of TRIB2 and GAPDH was used as loading control. Monoclonal anti-Trib2 antibody was purchased from Santa Cruz Biotech, Santa Cruz, CA.
LNCaP-ENR cells were treated with varying doses (4 μM, 8 μM, or 12 μM) of DCV for 24 hours. Effects on TRIB2 protein levels and its downstream targets (e.g., pAkt, Bcl-xL, Survivin, and FOXO3) were analyzed by Western blot. GAPDH was used as loading control. Protein levels of TRIB2, pAKT (S473), Bcl-xL, and Survivin were reduced in cells treated with 12 μM of DCV compared to control-treated cells (FIG. 3A). Levels of FOXO3 protein were increased at 12 μM of DCV treatment compared to control treatment. This was expected, as FOXO3 level is known to be decreased by Trib2. These effects on cellular protein levels were DCV concentration-dependent, with the most pronounced effects observed at the highest concentration tested (12 μM).

[2] = in vivo; cited from earlier work
LNCaP-ENR cells = assay: Cell cycle distribution; assay type: cell-based, human; details: ERPC cells; FIG. 16 at 8 μM

Chain of p-glycoprotein (PGP) (P08183 whole entry): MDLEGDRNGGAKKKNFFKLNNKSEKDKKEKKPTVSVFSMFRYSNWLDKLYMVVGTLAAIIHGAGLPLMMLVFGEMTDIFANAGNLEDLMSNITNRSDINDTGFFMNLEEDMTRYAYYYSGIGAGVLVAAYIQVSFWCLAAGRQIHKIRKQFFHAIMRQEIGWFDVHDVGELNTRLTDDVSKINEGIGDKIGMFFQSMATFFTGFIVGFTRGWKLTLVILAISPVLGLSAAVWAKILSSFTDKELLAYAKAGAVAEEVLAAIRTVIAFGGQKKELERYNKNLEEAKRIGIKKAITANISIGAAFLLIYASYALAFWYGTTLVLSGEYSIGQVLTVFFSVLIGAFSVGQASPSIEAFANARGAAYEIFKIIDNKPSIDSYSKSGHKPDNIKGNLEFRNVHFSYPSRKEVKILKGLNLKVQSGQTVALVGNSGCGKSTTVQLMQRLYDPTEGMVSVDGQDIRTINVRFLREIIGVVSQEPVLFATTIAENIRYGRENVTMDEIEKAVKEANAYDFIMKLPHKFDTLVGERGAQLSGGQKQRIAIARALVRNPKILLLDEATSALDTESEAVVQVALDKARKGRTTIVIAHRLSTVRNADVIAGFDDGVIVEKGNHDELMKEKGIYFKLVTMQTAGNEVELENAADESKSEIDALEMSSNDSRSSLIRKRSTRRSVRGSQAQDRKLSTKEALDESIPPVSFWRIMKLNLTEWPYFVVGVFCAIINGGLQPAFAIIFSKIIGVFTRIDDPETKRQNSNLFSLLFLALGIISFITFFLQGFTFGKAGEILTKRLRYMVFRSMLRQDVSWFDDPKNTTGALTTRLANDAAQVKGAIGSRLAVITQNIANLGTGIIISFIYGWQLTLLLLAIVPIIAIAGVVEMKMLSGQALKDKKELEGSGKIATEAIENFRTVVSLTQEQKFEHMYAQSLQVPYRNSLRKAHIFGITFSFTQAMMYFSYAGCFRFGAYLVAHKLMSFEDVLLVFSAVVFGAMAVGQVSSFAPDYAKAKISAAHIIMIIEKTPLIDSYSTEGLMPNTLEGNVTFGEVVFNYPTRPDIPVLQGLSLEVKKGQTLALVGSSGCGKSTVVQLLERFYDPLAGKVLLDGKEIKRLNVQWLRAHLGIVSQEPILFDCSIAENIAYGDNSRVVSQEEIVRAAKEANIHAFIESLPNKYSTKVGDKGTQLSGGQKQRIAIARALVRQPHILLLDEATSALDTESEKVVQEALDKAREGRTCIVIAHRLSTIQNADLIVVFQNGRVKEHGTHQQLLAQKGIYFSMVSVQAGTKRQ

SMILES: COC(=O)N[C@H](C(=O)N1CCC[C@H]1c1nc(-c2ccc(-c3ccc(-c4c[nH]c([C@@H]5CCCN5C(=O)[C@@H](NC(=O)OC)C(C)C)n4)cc3)cc2)c[nH]1)C(C)C [Daclatasvir, 4,4′-bis[2-((2S)-1-{(2S)-2-[(methoxycarbonyl)amino]-3-methylbutanoyl}-2-pyrrolidinyl)-1H-imidazol-4-yl]-1,1′-biphenyl]
- solubility in aqueous solvents [1]: freely soluble
- inhibition of control luciferase activity (counter-screen, without Trib2) (luciferase): passed counter-screen tests
- inhibition of control luciferase activity (counter-screen, without Trib2) (luciferase; listed as DCV): does not inhibit control luciferase activity
- inhibition of control luciferase activity (counter-screen, without Trib2) (luciferase; listed as daclatasvir): does not inhibit luciferase activity in the absence of Trib2
- Tm of Trib2 protein in presence of DCV (pure Trib2 protein): 37 °C
- action on p-glycoprotein (PGP) (p-glycoprotein (PGP)): inhibitor
- effects on normal, non-cancer cells (normal, non-cancer cells): minimal effects
- TRIB2 protein levels (TRIB2; 10 μM, Western blot): downregulated
- TRIB2 protein levels (TRIB2; 12 μM, vs control-treated cells): reduced
- Trib2 protein level (TRIB2; range of aggressive cancer cell lines, including prostate, lung, and kidney): downregulates
- maximum tolerated dose (MTD) [2]: > 200 mg/kg/day
- cell cycle progression (LNCaP-ENR cells): arresting them at G0/G1 phase
